Usually EC50 stands for the concentration needed to bring the measured effect to its halfway point. By Ki is commonly meant the dissociation constant of the complex between target and ligand, obtained from inhibition or displacement.

Molecules are shown by their SMILES. Entries after “also recorded” stand apart in the source; their conditions may differ.

The test system of assay [1] is Human promyelocyte leukemia (HL60) cells. As to the kind of experiment: HL-60 differentiation (nitro blue tetrazolium reduction). Format: cell-based. Particulars: four days, FIG. 2. As for the experimental part:
The study drugs were dissolved in ethanol and the concentrations determined using UV spectrophotometry. Serial dilutions were prepared so that a range of drug concentrations could be tested without changing the final concentration of ethanol (≦0.2%) present in the cell cultures.
Human promyelocyte leukemia (HL60) cells were grown in RPMI-1640 medium containing 10% fetal bovine serum. The cells were incubated at 37° C. in the presence of 5% CO2.
HL60 cells were plated at 1.2×10^5 cells/ml. Eighteen hours after plating, cells in duplicate were treated with drug. Four days later, the cells were harvested and a nitro blue tetrazolium reduction assay was performed. (See Collins et al., 1979: J. Exp. Med. 149:969-974), The percentage of differentiated cells was determined by counting a total of 200 cells and recording the number that, contained intracellular black-blue formazan deposits. Verification of differentiation to monocytic cells was determined by measuring phagocytic activity.

The test system of assay [2] is 24-hydroxylase (24 Ohase) gene promoter upstream of a luciferase reporter gene in ROS 1.7/2.8 (bone) cells. The assay can be described thus: In vitro transcription assay (luciferase reporter). The class given is cell-based. The conditions noted are these: 24-hydroxylase promoter luciferase, sixteen hours after dosing; FIG. 3; read-out: EC50, stimulation of gene transcription in bone cells. As for the experimental part:
In Vitro Transcription Assay.
Transcription activity was measured in ROS 1.7/2.8 (bone) cells that were stably transfected with a 24-hydroxylase (24 Ohase) gene promoter upstream of a luciferase reporter gene. (See Arbour et al., 1998). Cells were given a range of doses. Sixteen hours after dosing the cells were harvested and luciferase activities were measured using a luminometer. RLU=relative luciferase units.
(A reporter such as luciferase makes a cellular process visible.)

Assay [3] concerns bone calcium mobilization. As to the kind of experiment: Bone calcium mobilization (serum calcium) in vitamin D-deficient rats. Format: in vivo, Sprague-Dawley rats. The conditions noted are these: low calcium diet (0.02%), ip once daily for 4 consecutive days, DA2HE up to 35100 pmol/day, FIG. 4. The source says: (§1) Intestinal Calcium Transport and Bone Calcium Mobilization Male, weanling Sprague-Dawley rats were placed on Diet 11 (see Suda et al., J. Nutr. 100:1049, 1970) (0.47% Ca)+vitamins AEK for one week followed by Diet 11 (0.02% Ca)+vitamins AEK for 3 weeks. The rats were then switched to the same diet containing 0.47% Ca for one week followed by two weeks on the same diet containing 0.02% Ca. Dose administration began during the last week on 0.02% calcium diet. Four consecutive ip doses were given approximately 24 hours apart. Twenty-four hours after the last dose, blood was collected from the severed neck and the concentration of serum calcium determined by atomic absorption spectrometry as a measure of bone calcium mobilization. The first 10 cm of the intestine was also collected for intestinal calcium transport analysis using the everted gut sac method.

The target of assay [4] is T1, full-length recombinant rat vitamin D receptor (Rattus norvegicus, UniProt P13053).
T1 construct: Full-length recombinant rat receptor was expressed in E. coli BL21 (DE3) Codon Plus RIL cells; histidine tag (C); made in house; host or cells: E. coli BL21 (DE3) Codon Plus RIL
T1 sequence (P13053 1-423): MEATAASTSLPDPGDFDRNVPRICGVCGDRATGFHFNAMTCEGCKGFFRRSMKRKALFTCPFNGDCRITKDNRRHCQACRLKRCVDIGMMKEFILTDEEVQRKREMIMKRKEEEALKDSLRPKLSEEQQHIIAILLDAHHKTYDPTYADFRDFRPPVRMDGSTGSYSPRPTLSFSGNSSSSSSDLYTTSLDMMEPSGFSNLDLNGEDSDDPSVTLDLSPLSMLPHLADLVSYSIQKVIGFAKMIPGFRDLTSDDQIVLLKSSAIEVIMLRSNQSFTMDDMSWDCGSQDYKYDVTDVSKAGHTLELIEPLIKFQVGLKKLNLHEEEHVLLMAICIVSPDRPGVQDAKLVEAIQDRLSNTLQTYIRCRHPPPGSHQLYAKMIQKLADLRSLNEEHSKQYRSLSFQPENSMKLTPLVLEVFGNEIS
As to the kind of experiment: Vitamin D receptor binding, competition with [3H]-1,25(OH)2D3. The conditions noted are these: FIG. 1. The source says:
Vitamin D Receptor Binding
Full-length recombinant rat receptor was expressed in E. coli BL21 (DE3) Codon Plus RIL cells and purified to homogeneity using two different column chromatography systems. The first system was a nickel affinity resin that utilizes the C-terminal histidine tag on this protein. The protein that was eluted from this resin was further purified using ion exchange chromatography (S-Sepharose Fast Flow). Aliquots of the purified protein were quick frozen in liquid nitrogen and stored at −80° C. until use. For use in binding assays, the protein was diluted in TEDK50 (50 mM Tris, 1.5 mM EDTA, pH 7.4, 5 mM DTT, 150 mM KCI) with 0.1% Chaps detergent. The receptor protein and ligand concentration was optimized such that no more than 20% of the added radiolabeled ligand was bound to the receptor.
Assay Conditions. Radiolabeled and unlabeled ligands were added to 100 mcl of the diluted protein at a final ethanol concentration of ≦10%, mixed and incubated overnight on ice to reach binding equilibrium. The following day, 100 mcl of hydroxylapatite slurry (50%) was added to each tube and mixed at 10-minute intervals for 30 minutes. The hydroxylapaptite was collected by centrifugation and then washed three times with Tris-EDTA buffer (50 mM Tris, 1.5 mM EDTA, phi 7.4) containing 0.5% Triton X-100. After the final wash, the pellets were transferred to scintillation vials containing 4 ml of Biosafe II scintillation cocktail, mixed and placed in a scintillation counter. Total binding was determined from the tubes containing only radiolabeled ligand.

The subject of assay [5] is intestinal calcium transport. As to the kind of experiment: Intestinal calcium transport (everted gut sac) in vitamin D-deficient rats. The class given is in vivo, Sprague-Dawley rats. Particulars: 4 consecutive ip doses, FIG. 5.
From the text: as §1

Regarding `C=C1/C(=C\C=C2/CCC[C@]3(C)[C@@H]([C@H](C)CCCC(C)(C)O)CC[C@@H]23)C[C@@H](O)C[C@@H]1O` [1α,25-dihydroxyvitamin D3, reference compound], the EC50 in assay [1] amounted to 3 nM; in assay [2], 0.08 nM. Moreover, the “bone calcium mobilization activity (serum calcium)” value in assay [3] is recorded as “increased serum calcium levels”.

For the compound `C[C@H](CCCC(C)(C)O)C1CCC2/C(=C/C=C(CCO)CCO)CCC[C@@]21C` (some centres unmarked) [DA2HE, seco-A-2,19-dinor-1,25-dihydroxyvitamin D3], the “VDR binding activity relative to 1α,25-dihydroxyvitamin D3” value in assay [4] (compared to natural hormone) is reported as “about 10 times less activity”. Besides, the Ki in assay [4] (full-length recombinant rat vitamin D receptor, read-out: Ki, competition with [3H]-1,25(OH)2D3 for binding to VDR) amounted to 0.4 nM. Further, the “VDR binding activity relative to standard 1α,25-(OH)2D3, in log” value in assay [4] (less activity than standard) was “about one”. The EC50 amounted to 300 nM in assay [1] (Homo sapiens, HL-60, 96 h) and 40 nM in assay [2]. For the same compound, the “bone calcium mobilization activity (serum calcium)” value in assay [3] is reported as “lacks any bone calcium mobilization activity; also recorded: no mobilization of bone calcium”. In assay [5], the “potency in promoting active calcium transport across the gut relative to 1α,25(OH)2D3” value is reported as “about 10 times less potent”. Moreover, in assay [5] (low calcium diet (0.02%), everted gut sac), the “intestinal calcium transport activity” value was “relatively high intestinal calcium transport activity which increases in a dose dependent manner”.

The record behind these values is patent US8785422B2, “A-ring modified 19-nor-vitamin D analogs and their uses” (Wisconsin Alumni Research Foundation, priority 2012, dated 2014).
